Active and inactive are the calls of the source.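 The calls were made as follows: active = half-maximal concentration at most 10 µM from a sound curve fit, with response shifting 30% or more across doses; inactive = the rest.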
Biological target: GTPase HRas (Homo sapiens) (UniProt P01112)
Assay: H-Ras act fluorescent GTP binding inhibition – biochemical, multiplex bead flow cytometry, round 1, selectivity assay for Cdc42 probe extension project, SAR follow-up (AID 588381)
Details: GST-H-Ras act beads, Bodipy-FL-GTP binding; for response, lower = inhibition: at 100 µM (top of the series)

Sequence of GTPase HRas (Homo sapiens) (P01112 whole entry, looked up): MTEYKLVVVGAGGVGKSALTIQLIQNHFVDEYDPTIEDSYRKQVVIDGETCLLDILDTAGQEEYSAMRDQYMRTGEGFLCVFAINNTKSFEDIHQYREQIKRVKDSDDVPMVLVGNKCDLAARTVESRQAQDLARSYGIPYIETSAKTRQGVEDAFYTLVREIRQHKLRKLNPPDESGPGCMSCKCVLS

Question: For `O=C(C#Cc1ccccc1)c1cccc([N+](=O)[O-])c1`, which “response, lower = inhibition” value is on record?
Answer: Its value is “inactive”.

Question: `COc1ccc(C2CC(c3ccccc3)=NN2c2ccc(S(N)(=O)=O)cc2)cc1` (centres undefined) was tested. Which “response, lower = inhibition” value did it give?
Answer: The value was “inactive”.

Question: `NS(=O)(=O)c1ccc(N2N=C(c3ccccc3)CC2c2ccccc2)cc1` (centres undefined) was tested. Which “response, lower = inhibition” value did it give?
Answer: The value was “inactive”.

Question: How did the EC50 turn out when `CC1(C)Cc2c(sc(NC(=S)NC(=O)c3ccccc3)c2C(=O)O)CO1` was run?
Answer: The EC50 was 82 nM.

Reference: PubChem BioAssay AID588381 (NMMLSC, 2011)
